This passage reports IC50 and Vmax results from paper PMC3723234 (Pain, 2012).

Data set [1] concerns the target T1, N-acylethanolamine acid amidase (NAAA) (Rattus norvegicus, UniProt Q5KTC7).
T1 sequence (Q5KTC7 34-130): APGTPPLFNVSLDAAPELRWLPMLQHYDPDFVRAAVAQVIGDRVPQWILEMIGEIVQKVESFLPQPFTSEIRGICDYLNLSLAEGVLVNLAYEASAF
T1 sequence (Q5KTC7 131-362): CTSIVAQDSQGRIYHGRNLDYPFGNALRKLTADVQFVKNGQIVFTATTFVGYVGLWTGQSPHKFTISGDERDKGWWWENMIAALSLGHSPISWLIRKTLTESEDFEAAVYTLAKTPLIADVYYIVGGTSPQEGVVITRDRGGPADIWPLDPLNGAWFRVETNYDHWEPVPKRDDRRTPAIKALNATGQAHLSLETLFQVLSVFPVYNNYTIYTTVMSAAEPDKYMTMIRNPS
Put plainly: LC/MS enzyme activity assay in HEK-rNAAA cell preparations. In kind it is biochemical.

Substrate in data set [2]: CCCCCC/C=C\CCCCCCCCC(=O)NCCO
Put plainly: Michaelis-Menten analysis by LC/MS of heptadecenoic acid formation. In kind it is biochemical, Rattus norvegicus.

Regarding `C[C@@H]1OC(=O)[C@@H]1NC(=O)OCCCCCc1ccccc1` [ARN077, 5-phenylpentyl N-[(2S,3R)-2-methyl-4-oxo-oxetan-3-yl] carbamate], in data set [1], it took 11 nM to reach half-maximal inhibition (IC50).

B1: N-acylethanolamine acid amidase (NAAA) (Rattus norvegicus) (protein)
chain 1: T1 sequence (Q5KTC7 34-130)
chain 2: T1 sequence (Q5KTC7 131-362)
In the case of B1, the maximal velocity (Vmax) in data set [2] was determined as 0.0154 µmol/min/mg.
